# According to patent US12628857B2, “Compositions comprising human milk oligosaccharides for use in a subject to support night sleep duration” (SOCIETE DES PRODUITS NESTLE S.A., priority 2020, dated 2026):
# Tests used:
# breast-fed children [1] = assay: Association of breast milk HMO levels with BISQ sleep parameters, LIFE Child cohort; format: in vivo, human; settings: 3 months of age
# Description: (§1) The “BISQ” questionnaire is the brief infant sleep questionnaire, this questionnaire has been developed to screen sleep problems in infants and young children. This questionnaire has also been commonly used in sleep research to quantify quantity and quality of sleep as well as sleep maturation (Sadeh A. “Sleep assessment method” Monographs Soc Res Child Dev 80(1) 2015).
# (§2) In the framework of the BISQ questionnaire one or more parameters are observed and recorded that are selected in the group consisting of: nocturnal sleep duration (between the hours of 7 pm and 7 am); daytime sleep duration (between the hours of 7 am and 7 pm); number of night awaking; duration of wakefulness during the night hours (10 pm to 6 am); nocturnal sleep-onset time (the clock time at which the child falls asleep for the night); settling time (latency to falling asleep for the night); method of falling asleep; location of sleep; and preferred body position. […]
# A subset of typically developing children enrolled in the LIFE Child cohort aged between 0-12 months who were breast-fed at the time of visit were included in this study. and consists of breast milk samples—collected in mothers at 3, 6 and 12 months after child's birth—and questionnaires—collected during pregnancy and the first year of the child's life—containing information about children sleep and some related confounding factors. the analysis was conducted on 153 subjects at 3 months, 113 subjects at 6 months and 27 subjects at 12 months. The collected BMs were analyzed for HMOs, including 2′-Fucosyllactose (2FL), 3′-Fucosyllactose (3FL), 3′-Sialyllactose (3SL), 6′-Sialyllactose (6SL), Lacto-N-tetraose (LNT), Lacto-N-neotetraose (LNnT), Lacto-N-fucopentaose I (LNFP1), and A-Tetrasaccharide. The association between sleep parameters generated using the BISQ and breast milk HMO levels were evaluated using logistic regression models. […] Both LNT and total core-HMO correlated with total night sleep time assessed by the BISQ (p<0.05, FIGS. 3 and 4 respectively).
# breast-fed children [2] = assay: Correlation of breast milk HMO levels with sleep duration (BISQ), BCP-Enriched cohort; format: in vivo, human; settings: FIG. 1
# Description: as §1, §2
# A subset of typically developing children (n=92) enrolled in the BCP cohort aged between 0-20 months who were breast-fed at the time of visit were included in this study. […] The collected BMs were analyzed for HMOs, including 2′-Fucosyllactose (2FL), 3′-Fucosyllactose (3FL), 3′-Sialyllactose (3SL), 6′-Sialyllactose (6SL), Lacto-N-tetraose (LNT), Lacto-N-neotetraose (LNnT), Lacto-N-fucopentaose I (LNFP1), and A-Tetrasaccharide. […]
SMILES,"Correlation of total night time sleep with breast milk levels (breast-fed children [1]; BISQ, p<0.05, FIGS. 3 and 4)",Dependence of the night sleep association on the method to go to sleep (need of rocking) (breast-fed children [1]; FIG. 3),"Correlation of total sleep time with breast milk levels (breast-fed children [1]; p<0.05, FIG. 2)","Correlation of total night-time sleep time with breast milk levels (breast-fed children [2]; BCP-Enriched, n=92, infant aged more than 11 months, p=0.05)","Correlation of total night time sleep with breast milk levels (breast-fed children [2]; BCP-enriched cohort, age >10 months, p<0.05)"
"CC(=O)N[C@H]1[C@H](O[C@H]2[C@@H](O)[C@@H](CO)O[C@@H](O[C@H]3[C@H](O)[C@@H](O)C(O)O[C@@H]3CO)[C@@H]2O)O[C@H](CO)[C@@H](O)[C@@H]1O[C@@H]1O[C@H](CO)[C@H](O)[C@H](O)[C@H]1O (some centres unmarked) [LNT, Lacto-N-tetraose]",significantly correlated,independent of the method to go to sleep,significantly correlated,,
"CC(=O)N[C@H]1[C@H]([C@H](O)[C@H](O)CO)O[C@@](O[C@H]2[C@@H](O)[C@@H](CO)O[C@@H](O[C@H]3[C@H](O)[C@@H](O)C(O)O[C@@H]3CO)[C@@H]2O)(C(=O)O)C[C@@H]1O (stereo partly drawn) [3SL, (6R)-5-Acetamido-3,5-dideoxy-6-[(1R,2R)-1,2,3-trihydroxypropyl]-β-L-threo-hex-2-ulopyranonosyl-(2→3)-β-D-galactopyranosyl-(1→4)-D-glucopyranose]",,,,correlate positively,significantly correlated
